PubChem BioAssay AID330 (DTP/NCI, 2004)
Where “and” joins values, the source holds several entries; their conditions need not be identical. Identical values can stand only once. Inconclusive results and toxic doses are left out. Rule for the calls: active = survival T/C of 150% or more; inactive = T/C below 125% in these data.

Tested on: P388 leukemia ip, CD2F1 mice, survival T/C
Test: NCI In Vivo Anticancer Drug Screen. Data for tumor model P388 Leukemia (intraperitoneal) in CD2F1 (CDF1) mice
Conditions: endpoint: median survival time, higher = longer survival
Outline: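 Mice carrying the transplanted tumor received test compound or vehicle. Survival was recorded in each group, and the value is the treated-group measurement divided by that of the vehicle-treated control group.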

[1] = dose: 100.0 mg/kg/injection, schedule: Q01DX009 (ip), vehicle: saline with Tween-80
[2] = dose: 200.0 mg/kg/injection, schedule: Q01DX009 (ip), vehicle: saline with Tween-80
[3] = dose: 50.0 mg/kg/injection, schedule: Q01DX005 (ip), vehicle: Klucel (hydroxypropylcellulose) (HPC)
[4] = dose: 100.0 mg/kg/injection, schedule: Q01DX005 (ip), vehicle: Klucel (hydroxypropylcellulose) (HPC)
[5] = dose: 200.0 mg/kg/injection, schedule: Q01DX005 (ip), vehicle: Klucel (hydroxypropylcellulose) (HPC)
[6] = dose: 50.0 mg/kg/injection, schedule: Q01DX005 (ip), vehicle: saline with Tween-80
[7] = dose: 100.0 mg/kg/injection, schedule: Q01DX005 (ip), vehicle: saline with Tween-80
[8] = dose: 200.0 mg/kg/injection, schedule: Q01DX005 (ip), vehicle: saline with Tween-80

Measured: T/C

CC1C(=O)CCC2(C)CCC(C)(C)CC12 (configuration not stated)
inactive: [1] 91 % of control | [2] 104 % of control | dose: 400.0 mg/kg/injection, schedule: Q01DX009 (ip), vehicle: saline with Tween-80 95 % of control

O=[N+]([O-])c1ccc(/C=[N+](\[O-])CCO)cc1
inactive: [1] 99 % of control | [2] 92 % of control

O=C1C=CSc2ccccc2N1
inactive: dose: 60.0 mg/kg/injection, schedule: Q01DX005 (ip), vehicle: saline with Tween-80 110 % of control | dose: 120.0 mg/kg/injection, schedule: Q01DX005 (ip), vehicle: saline with Tween-80 103 % of control | dose: 240.0 mg/kg/injection, schedule: Q01DX005 (ip), vehicle: saline with Tween-80 101 % of control

COc1cc(/C(=C(\CC(=O)O)C(=O)O)c2ccc3c(c2)OCO3)cc(OC)c1OC
inactive: [3] 102 % of control and 103 % of control | [4] 103 % of control and 111 % of control | [5] 99 % of control and 100 % of control

COc1ccc(C(=O)O[C@H]2CC[C@@]3(C)[C@@H]4CC[C@H]5[C@]6(O)C[C@H](O)[C@@]7(O)[C@@H](CN8C[C@@H](C)CC[C@H]8[C@@]7(C)O)[C@]6(O)C[C@@]53OC24O)cc1OC
inactive: dose: 3.12 mg/kg/injection, schedule: Q01DX005 (ip), vehicle: saline 95 % of control | dose: 6.25 mg/kg/injection, schedule: Q01DX005 (ip), vehicle: saline 95 % of control | dose: 12.5 mg/kg/injection, schedule: Q01DX005 (ip), vehicle: saline 97 % of control

COCCC1OCC(CCl)O1 (configuration not stated)
inactive: [6] 104 % of control | [7] 99 % of control | [8] 108 % of control

O=C(O)c1ccc2c3c(n[se]c13)-c1ccccc1C2=O
inactive: [3] 99 % of control | [4] 103 % of control

C=C(CO)C(=O)OC1CC(=C)C2CC(O)C(=C)C2[C@H]2OC(=O)C(=C)C12 (some centres not stated)
inactive: dose: 3.75 mg/kg/injection, schedule: Q01DX009 (ip), vehicle: saline 92 % of control | dose: 7.5 mg/kg/injection, schedule: Q01DX009 (ip), vehicle: saline 99 % of control | dose: 15.0 mg/kg/injection, schedule: Q01DX009 (ip), vehicle: saline 108 % of control

Cc1ccc(/C=N/O)cc1
inactive: dose: 25.0 mg/kg/injection, schedule: Q01DX005 (ip), vehicle: Klucel (hydroxypropylcellulose) (HPC) 97 % of control | [3] 98 % of control | [4] 99 % of control | [5] 98 % of control

CC(/C=N\Nc1ccc(C(=O)O)cc1)=N/N(C)C
inactive: dose: 100.0 mg/kg/injection, schedule: Q04DX003 (ip), vehicle: saline 101 % of control | dose: 200.0 mg/kg/injection, schedule: Q04DX003 (ip), vehicle: saline 98 % of control | dose: 400.0 mg/kg/injection, schedule: Q04DX003 (ip), vehicle: saline 101 % of control

CS(=O)(=O)Nc1ccc(NC(=O)c2c3ccccc3nc3ccccc23)cc1
inactive: dose: 12.5 mg/kg/injection, schedule: Q01DX005 (ip), vehicle: saline with Tween-80 103 % of control | dose: 25.0 mg/kg/injection, schedule: Q01DX005 (ip), vehicle: saline with Tween-80 99 % of control | [6] 109 % of control and 110 % of control

CCOC(=O)C(C)/C(C)=N\NC(N)=S (configuration not stated)
inactive: dose: 60.0 mg/kg/injection, schedule: Q01DX005 (ip), vehicle: Klucel (hydroxypropylcellulose) (HPC) 100 % of control | dose: 120.0 mg/kg/injection, schedule: Q01DX005 (ip), vehicle: Klucel (hydroxypropylcellulose) (HPC) 100 % of control | dose: 240.0 mg/kg/injection, schedule: Q01DX005 (ip), vehicle: Klucel (hydroxypropylcellulose) (HPC) 100 % of control

CCOC(=O)c1nc[nH]c1C
inactive: [6] 100 % of control | [7] 101 % of control | [8] 100 % of control

COc1ccc(OC)c(/C=C(/C)[N+](=O)[O-])c1
inactive: dose: 44.0 mg/kg/injection, schedule: Q04DX003 (ip), vehicle: saline with Tween-80 119 % of control | dose: 66.0 mg/kg/injection, schedule: Q04DX003 (ip), vehicle: saline with Tween-80 117 % of control | dose: 100.0 mg/kg/injection, schedule: Q04DX003 (ip), vehicle: saline with Tween-80 123 % of control | dose: 150.0 mg/kg/injection, schedule: Q04DX003 (ip), vehicle: saline with Tween-80 124 % of control
